In brackets after ≈: the same amount, converted by molar mass. Like-named read-outs stand apart in the source and are kept apart here.
Legend:
[1] = tested on: clinically isolated strains of MRSA; experiment: Antibacterial MIC spectra against 50 clinically isolated strains of MRSA; format: cell-based, methicillin-resistant Staphylococcus aureus; details: Staphylococcus aureus; for MIC50: 50% of the 50 MRSA strains inhibited, read-out: MIC50; for MIC: range over 50 clinically isolated strains of MRSA, read-out: Antibacterial MIC spectra
Method: (§1) Minimum growth inhibitory concentrations (MIC) of each of 2"-amino-2"-deoxyarbekacin (Compound Ia), 2"-amino-5,2"-dideoxyarbekacin (Compound Ib), 2"-amino-2"-deoxydibekacin (Compound IIa) and 2"-amino-5,2"-dideoxydibekacin (Compound IIb) against various bacteria (20 strains) and against clinically isolated strains of MRSA (50 strains) were determined by standard serial dilution method on Muller-Hinton's agar medium (as estimated after cultivating at 27° C. for 18 hours), and the test results obtained are shown in TABLE 3 and TABLE 4, respectively.
Note:- MIC50 or MIC90 represents the concentration of tested
active compound at which 50% or 90% of the total numbers of the bacterial
strains tested were inhibited from their growth. DKB denotes dibekacin,
(§2) Minimum growth inhibitory concentrations (MIC) of each of 2"-amino-5,2"-dideoxy-5-epi-fluoroarbekacin (Compound XVIa) and 2"-amino-5,2"-dideoxy-5-epi-aminoarbekacin (Compound XVIb) against various bacteria (18 strains) and against clinically isolated strains of MRSA (50 strains) were determined by standard serial dilution method on Muller-Hinton's agar medium (as estimated after cultivation at 27° C. for 18 hours), and the test results obtained are shown in TABLE 5 and TABLE 6, respectively.

[2] = tested on: strain of MRSA which exhibits a moderate resistance to arbekacin; experiment: Minimum growth inhibitory concentration against MRSA strain moderately resistant to arbekacin; format: cell-based, methicillin-resistant Staphylococcus aureus; details: Staphylococcus aureus, read-out: minimum growth inhibitory concentration of arbekacin
B. cereus ATCC10702 = experiment: MIC by standard serial dilution method on Muller-Hinton's agar; format: cell-based; details: Bacillus cereus, ATCC10702; Table 3; 27° C., 18 hours; read-out: MIC
Method: as §1

E. coli K-12 ML1410 = experiment: as above; format: cell-based; details: Escherichia coli, K12ML1410; Table 3; 27° C., 18 hours
Method: as §1

Solubility in water = format: physicochemical
P. aeruginosa PST1 = experiment: MIC by standard serial dilution method on Muller-Hinton's agar; format: cell-based; details: Pseudomonas aeruginosa, Table 3, 27° C., 18 hours
Method: as §1, §2

[3] = tested on: Shigella dysenteriae JSI1910; experiment: as above; format: cell-based; details: JSI1910, 18 h
Method: as §1, §2

[4] = tested on: Klebsiella pneumoniae PCI602; experiment: as above; format: cell-based; details: PCI602, Table 3, 27° C., 18 hours, read-out: MIC
Method: as §1, §2

Proteus vulgaris OX19 = experiment: as above; format: cell-based; details: OX19, Table 3, 27° C., 18 hours, read-out: MIC
Method: as §1, §2

E. coli K-12 LA290 R55 = experiment: as above; format: cell-based; details: Escherichia coli, K12LA290R55, 18 h
Method: as §1, §2

Escherichia coli NIHJ = experiment: as above; format: cell-based; details: Table 3, 27° C., 18 hours
Method: as §1, §2

[5] = tested on: Providencia rettgeri GN311; experiment: as above; format: cell-based; details: GN311, Table 3, 27° C., 18 hours, read-out: MIC
Method: as §1, §2

E. coli K-12 ML1629 = experiment: as above; format: cell-based; details: Escherichia coli, K12ML1629; Table 3; 27° C., 18 hours; read-out: MIC
Method: as §1, §2

Bacillus subtilis PCI219 = experiment: as above; format: cell-based; details: Table 3, 27° C., 18 hours
Method: as §1, §2

S. aureus Smith = experiment: as above; format: cell-based; details: Staphylococcus aureus; Table 3; 27° C., 18 hours
Method: as §1, §2

Salmonella typhi T-63 = experiment: as above; format: cell-based; details: Salmonella enterica, Table 3, 27° C., 18 hours
Method: as §1, §2

S. epidermidis 109 = experiment: as above; format: cell-based; details: Staphylococcus epidermidis, 109; Table 3; 27° C., 18 hours; read-out: MIC
Method: as §1, §2

[6] = tested on: Pseudomonas aeruginosa A3; experiment: as above; format: cell-based; details: A3, Table 3, 27° C., 18 hours, read-out: MIC
Method: as §1, §2

Serratia marcescens = experiment: as above; format: cell-based; details: Table 3, 27° C., 18 hours, read-out: MIC
Method: as §1, §2

P. aeruginosa H9 = experiment: as above; format: cell-based; details: Pseudomonas aeruginosa, H9; Table 3; 27° C., 18 hours; read-out: MIC
Method: as §1, §2

P. aeruginosa TI-13 = experiment: as above; format: cell-based; details: Pseudomonas aeruginosa, TI13, 18 h
Method: as §1, §2

[7] = tested on: Staphylococcus aureus FDA209P; experiment: as above; format: cell-based; details: Table 3, 27° C., 18 hours
Method: as §1, §2

E. coli JR66/W677 = experiment: as above; format: cell-based; details: Escherichia coli, JR66/W677, 18 h
Method: as §1, §2

mice = experiment: Acute toxicity, single intravenous administration to mice; format: in vivo; details: mice / mammals
Source text: (§3) 50% Lethal dosages (LD50, observations for two weeks) of the new compounds of this invention as estimated upon single intravenous administration to mice (ICR-strain, 4 weeks old, female) are as follows:
(§4) 50% Lethal dosages (LD50, observations for two weeks) of the new compounds of general formula (XVI) according to the seventh aspect of this invention as estimated upon single intravenous administration to mice (ICR-strain, 4 weeks old, female) are as follows: […]

[8] = as above; format: in vivo; details: mouse, in vivo, iv
Source text: as §3, §4

[9] = tested on: gram-positive and gram-negative bacteria; experiment: Antibacterial activities against gram-positive and gram-negative bacteria; format: cell-based
Method: as §1, §2

Which results are given for NCC[C@H](O)C(=O)N[C@@H]1C[C@H](N)[C@@H](O[C@H]2O[C@H](CN)CC[C@H]2N)[C@H](O)[C@H]1O[C@H]1O[C@H](CO)[C@@H](O)[C@H](N)[C@H]1O [ABK, (S)-1-N-(4-amino2-hydroxybutyryl)dibekacin, reference compound]?
MIC50 ([1]; 27° C., 18 hours): 0.39 µg/mL (≈ 0.706 µM); MIC90 ([1]; 90% of the 50 MRSA strains inhibited, 27° C., 18 hours, read-out: MIC90): 6.25 µg/mL (≈ 11.3 µM); MIC ([1]; 27° C., 18 hours): 0.2 to 6.25 µg/mL (≈ 0.362 to 11.3 µM); MIC [2]: 6.25 to 12.5 µg/mL (≈ 11.3 to 22.6 µM)

With NCC[C@H](O)C(=O)N[C@@H]1C[C@H](N)[C@@H](O[C@H]2O[C@H](CN)CC[C@H]2N)C[C@H]1O[C@H]1O[C@H](CO)[C@@H](O)[C@H](N)[C@H]1N [Compound Ib, 2"-Amino-5,2"-dideoxyarbekacin] as the compound, how does the MIC (B. cereus ATCC10702) read?
The MIC was 0.78 µg/mL (≈ 1.46 µM).

What about the MIC (E. coli K-12 ML1410) of the same compound?
Its MIC is 1.56 µg/mL (≈ 2.91 µM).

What about the Solubility (Solubility in water) of the same compound?
Its Solubility is “easily soluble in water”.

And the MIC (P. aeruginosa PST1)?
The MIC was 6.25 µg/mL (≈ 11.7 µM).

What about the MIC [3] of the same compound?
Its MIC is 1.56 µg/mL (≈ 2.91 µM).

And the MIC [4]?
Its MIC is 0.78 µg/mL (≈ 1.46 µM).

And the MIC (Proteus vulgaris OX19)?
Its MIC is 0.78 µg/mL (≈ 1.46 µM).

And the MIC (E. coli K-12 LA290 R55)?
The MIC was 0.78 µg/mL (≈ 1.46 µM).

And the MIC (Escherichia coli NIHJ)?
Its MIC is 0.39 µg/mL (≈ 0.728 µM).

And the MIC [5]?
Its MIC is 0.78 µg/mL (≈ 1.46 µM).

What about the MIC (E. coli K-12 ML1629) of the same compound?
The MIC was 1.56 µg/mL (≈ 2.91 µM).

What about the MIC (Bacillus subtilis PCI219) of the same compound?
The MIC was no more than 0.2 µg/mL.

And the MIC (S. aureus Smith)?
Its MIC is no more than 0.2 µg/mL.

And the MIC (Salmonella typhi T-63)?
Its MIC is 0.78 µg/mL (≈ 1.46 µM).

What about the MIC (S. epidermidis 109) of the same compound?
Its MIC is 0.39 µg/mL (≈ 0.728 µM).

What about the MIC [6] of the same compound?
The MIC was 0.39 µg/mL (≈ 0.728 µM).

And the MIC (Serratia marcescens)?
Its MIC is 6.25 µg/mL (≈ 11.7 µM).

What about the MIC (P. aeruginosa H9) of the same compound?
The MIC was 3.13 µg/mL (≈ 5.84 µM).

And the MIC (P. aeruginosa TI-13)?
Its MIC is 1.56 µg/mL (≈ 2.91 µM).

What about the MIC [7] of the same compound?
Its MIC is no more than 0.2 µg/mL.

And the MIC (E. coli JR66/W677)?
The MIC was 3.13 µg/mL (≈ 5.84 µM).

What about the “acute toxicity (in words)” value (mice) of the same compound?
The value was “higher acute toxicity to mice than that of 2"-amino-2"-deoxyarbekacin”.

What about the LD50 at 336 h [8] of the same compound?
The LD50 at 336 h was 50 to 100 mg/kg.

And the MIC90 ([1]; MRSA, 18 h)?
The MIC90 was 1.56 µg/mL (≈ 2.91 µM).

What about the MIC50 ([1]; 27° C., 18 hours) of the same compound?
Its MIC50 is 0.78 µg/mL (≈ 1.46 µM).

And the MIC ([1]; 27° C., 18 hours)?
Its MIC is 0.2 to 3.13 µg/mL (≈ 0.373 to 5.84 µM).

What about the “antibacterial activity (in words)” value [9] of the same compound?
The value was “broad and excellent antibacterial activity”.

Reference: patent US5618795A, “Dibekacin derivatives and arbekacin derivatives active against resistant bacteria, and the production thereof” (Zaidan Hojin Biseibutsu Kagaku Kenkyu Kai, priority 1992, dated 1997)
